# Measured values reported in patent US6191155A (priority 1997, dated 2001).
# How the values were obtained:
# Plutella xylostella = assay: Plutella test (caterpillars of the diamond-back moth on cabbage leaves); format: in vivo, Plutella xylostella (on Brassica oleracea); settings: 168 h, active compound concentration 0.1 % by weight, after 7 days, read-out: Kill in % after 7d
# Experimental: Solvent: 7 parts by weight of dimethylformamide
# Emulsifier: 1 part by weight of alkylaryl polyglycol ether
# (§1) To produce a suitable preparation of active compound, 1 part by weight of active compound is mixed with the stated amounts of solvent and emulsifier, and the concentrate is diluted with water to the desired concentration.
# Cabbage leaves (Brassica oleracea) are treated by being dipped into the preparation of active compound of the desired concentration and are populated with caterpillars of the diamond-back moth (Plutella xylostella) while the leaves are still moist.
# After 7 days, the kill is determined. An efficacy of 100% means that all caterpillars have been killed, while an efficacy of 0% means that none of the caterpillars have been killed.
# [1] = test system: Erysiphe graminis f.sp. hordei; assay: Erysiphe test (barley)/protective; format: in vivo, Erysiphe graminis f.sp. hordei (on barley); settings: active compound concentration 250 (head: % by weight); protective; 7 days after inoculation; 100% = no infection
# Experimental: Erysiphe Test (Barley)/Protective
# (§2) Solvent: 10 parts by weight of N-methyl-pyrrolidone
# (§3) Emulsifier: 0.6 parts by weight of alkylaryl polyglycol ether
# as §1
# To test for protective activity, young plants are sprayed with the preparation of active compound at the stated application rate.
# After the spray coating has dried on, the plants are dusted with spores of Erysiphe graminis f.sp. hordei.
# The plants are placed in a greenhouse at a temperature of approximately 20° C. and a relative atmospheric humidity of approximately 80% to promote the development of mildew pustules.
# Evaluation is carried out 7 days after the inoculation. 0% means an efficacy which corresponds to that of the control, while an efficacy of 100% means that no infection is observed.
# [2] = log P by HPLC (EEC Directive 79/831 Annex V.A8); format: physicochemical; settings: gradient method, acetonitrile/0.1% of aqueous phosphoric acid
# Experimental: *) The log P values were determined in accordance with EEC Directive 79/831
# Annex V.A8 by HPLC (gradient method, acetonitrile/0.1% of aqueous
# fungi = settings: cited from earlier work
# Leptosphaeria nodorum = Leptosphaeria nodorum test (wheat)/protective; format: in vivo, Leptosphaeria nodorum (on wheat); settings: application rate 250 g/ha; protective; evaluation 10 days after inoculation
# Experimental: Leptosphaeria nodorum Test (Wheat)/Protective
# as §2, §3, §1
# To test for protective activity, young plants are sprayed with the preparation of active compound at the stated application rate. After the spray coating has dried on, the plants are sprayed with a spore suspension of Leptosphaeria nodorum. The plants remain in an incubation cabin at 20° C. and 100% relative atmospheric humidity for 48 hours.
# The plants are placed in a greenhouse at a temperature or approximately 15° C. and a relative atmospheric humidity of 80%.
# Evaluation is carried out 10 days after the inoculation. 0% means an efficacy which corresponds to that of the control, while an efficacy of 100% means that no infection is observed.
structure (smiles),measurement,setting,value
O=C(OCCOCCN1CCCC1)c1snc(Cl)c1Cl [Example 3],mortality at 0.1 % strength,Plutella xylostella,100%
same,Efficacy in %,[1],100%
same,chromatographic logP,[2],1.36
CCN(CC)CCOC(=O)c1snc(Cl)c1Cl [Example 2],chromatographic logP,[2],1.37
O=C(OCCn1nnc2ccccc21)c1snc(Cl)c1Cl [Example 11],chromatographic logP,[2],2.81
O=C(OCc1cccnc1)c1snc(Cl)c1Cl [Example 12],mortality at 0.1 % strength,Plutella xylostella,100%
COC(=O)c1ccc(OCCOC(=O)c2snc(Cl)c2Cl)cc1 [Example 6],chromatographic logP,[2],3.91
O=C(OCC(O)CO)c1snc(Cl)c1Cl (centres unmarked) [Example 20],chromatographic logP,[2],1.49
CCCSC(=O)c1snc(Cl)c1Cl [Example 18],chromatographic logP,[2],4.66
O=C(OCCOc1cccc(C(F)(F)F)c1)c1snc(Cl)c1Cl [Example 4],chromatographic logP,[2],4.71
Cc1ccc(C(C)OC(=O)c2snc(Cl)c2Cl)cc1 (centres unmarked) [Example 19],chromatographic logP,[2],5.02
CSC(=O)c1snc(Cl)c1Cl [Example 15],chromatographic logP,[2],3.46
O=C(OCCOC(CF)CF)c1snc(Cl)c1Cl [Example 9],chromatographic logP,[2],3.11
"CC(C)OC(=O)c1snc(Cl)c1Cl [isopropyl 3,4-dichloro-isothiazol-5-carboxylate]",activity in controlling fungi,fungi,good
O=C(OCCc1ccc(Cl)cc1)c1snc(Cl)c1Cl [Example 13],Efficacy in %,Leptosphaeria nodorum,81%
O=C(OCCOc1ccc(Cl)cc1)c1snc(Cl)c1Cl [Example 10],chromatographic logP,[2],4.58
O=C(OCCOCC(F)(F)F)c1snc(Cl)c1Cl [Example 8],chromatographic logP,[2],3.55
O=C(OCCOCc1ccccc1)c1snc(Cl)c1Cl [Example 5],chromatographic logP,[2],4.12
CC(C)CSC(=O)c1snc(Cl)c1Cl [Example 17],chromatographic logP,[2],5.16
CCN(CCOCCOC(=O)c1snc(Cl)c1Cl)c1ccccc1 [Example 7],chromatographic logP,[2],2.6
